Assay results taken from patent US20080227643A1, “Use of adjuvants to improve abscisic acid analog and abscisic acid derivative performance” (priority 2007, published 2008).
Where “and” joins values, the source holds several entries; their conditions need not be identical. Identical values can stand only once.

System: tomato leaf transpiration
Assay: tomato leaf transpiration inhibition bioassay (foliar application, porometer)
Assay type: in vivo, Tomato (variety: Rutgers)
Details: 25 ppm ABA analog foliar applied; for Transpiration rate (% of control): 20 mL/6 plants
Method: ABA analog effectiveness may be measured experimentally by quantifying the inhibition of transpiration in tomato leaves; this is a reliable laboratory bioassay of the level of ABA activity.
All the research studies were conducted in the greenhouse at the research farm of Valent BioSciences Corporation (Long Grove, Ill.). Tomato (variety: Rutgers) seeds were sown in 18-cell flats filled with Promix PGX (available from Premier Horticulture Inc. Quakertown, Pa.) three weeks for germination and initial growth. Plants were then transplanted into pots (18 cm in diameter and 18 cm in height) filled with Promix BX (available from Premier Horticulture Inc. Quakertown, Pa.) and grown for one or two more weeks before treatment, depending on greenhouse temperature. During growing periods, plants received daily irrigation and weekly fertilizer (1 g/L all purpose fertilizer 20-20-20, The Scotts Company, Marysville, Ohio).
Chemical solutions were prepared with distilled water. ABA analogs, 8′ acetylene-ABA, acid (PBI-524) and 8′ acetylene-ABA methyl ester (PBI-429) were available from Plant Biotechnology Institute, National Research Council of Canada (Saskatoon, Saskatchewan, Canada). 25 ppm PBI-429 or 25 ppm PBI-524 was prepared by dissolving 25 mg chemical in 1 L distilled water.
Tween 20 and Brij 98 were available from Uniqema (New Castle, Del.). Silwet L-77 was available from GE Silicones (Wilton, Conn.). Agral 90 was available from Norac Concept. Inc. (Orleans, Ontario, Canada). Kinetic was available from Setre Chemical Company (Memphis, Tenn.). Capsil was available from Aquatrols (Paulsboro, N.J.). Urea and ammonium nitrate (NH4NO3) were available from Sigma-Aldrich (St. Louis, Mo.). Ethyl lactate was available from Fluka Chemie (GmbH, Buchs, Germany). Surfactant was added to 250-ppm ABA or 25-ppm ABA analogs at the concentration of 0.05% or 0.5% (v/v). Since Brij 98 was a waxy substance and difficult to dissolve in water, a stock solution of 25% Brij 98 was prepared by dissolving 25 g Brij 98 in 75 g ethyl lactate and this solution was easily dissolve in water.
Chemical solutions were foliar applied to tomato plant leaves at the rate of 20 mL/6 plants. Plants were then placed in a transparent chamber with humidity controlled at relative humidity 40 to 60%. […] The transpiration rate of each treatment was calculated as the percentage of that of control at each day to reduce day-to-day variation caused by changes of environmental condition such as light intensity and temperature.
All experiments were randomized complete block experimental design. Data were analyzed by analysis of variance. Duncan's new multiple range tests at α=0.05 were used for mean separations.

[1] = average over 7 days (days 1, 2, 3, 4, 7)

Row | SMILES | Transpiration rate (% of control) (1 day after treatment) | Transpiration rate (% of control) (2 days after treatment) | Transpiration rate (% of control) (3 days after treatment) | Transpiration rate (% of control) (4 days after treatment) | Transpiration rate (% of control) (7 days after treatment) | Transpiration rate (% of control), Average (average of days 1, 2, 3 (Table 11)) | Transpiration rate (% of control), Average [1]
1 | C#CC1(C)CC(=O)C=C(C)C1(O)/C=C/C(C)=C\C(=O)OC (stereo not shown) [PBI-429, 8′ acetylene-ABA methyl ester] | 102 % of control and 81 % of control and 77 % of control | 87 % of control and 64 % of control and 60 % of control | 86 % of control and 69 % of control and 71 % of control | 77.52 % of control and 78 % of control and 81 % of control and 77 % of control | 95 % of control and 73 % of control | 70 % of control | 74 % of control
2 | C#CC1(C)CC(=O)C=C(C)C1(O)C=CC(C)=CC(=O)O (stereo not shown) [PBI-524, 8′ acetylene-ABA, acid] | 95 % of control and 81 % of control | 87 % of control and 63 % of control | 93 % of control and 69 % of control | 92 % of control and 79 % of control | 101 % of control and 91 % of control |  | 77 % of control
